Molecular target: T1, ELIC (Dickeya chrysanthemi, UniProt P0C7B7)
T1 sequence (P0C7B7 1-321): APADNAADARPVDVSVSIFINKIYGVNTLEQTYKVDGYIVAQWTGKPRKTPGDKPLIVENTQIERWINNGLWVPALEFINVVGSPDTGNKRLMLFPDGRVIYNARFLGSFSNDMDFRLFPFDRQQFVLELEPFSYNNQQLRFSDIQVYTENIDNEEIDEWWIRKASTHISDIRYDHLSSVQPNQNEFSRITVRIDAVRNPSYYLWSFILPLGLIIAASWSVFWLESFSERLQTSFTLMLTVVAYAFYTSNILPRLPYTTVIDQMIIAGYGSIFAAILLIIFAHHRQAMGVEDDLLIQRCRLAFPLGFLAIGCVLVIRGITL
Experiment: two-electrode voltage clamp in Xenopus oocytes; outside-out patch clamp of HEK-293T cells
Format: cell-based

**Q.** With `NCCS` [CA, cysteamine] as the compound, how does the EC50 read?
**A.** The EC50 was 10 ± 0.1 mM.
